According to patent US20240166626A1, “Compounds and Methods for Preventing, Treating, or Ameliorating Airway Disease” (THOMAS JEFFERSON UNIVERSITY, priority 2021, published 2024):

Target: FLAG-β2AR (Homo sapiens, UniProt P07550)
Experiment: Receptor internalization, cell surface ELISA, HEK 293 FLAG-β2AR
Format: cell-based
Conditions: 10 μM DFPQ, ISO up to 60 min, FIG. 4A
Method: FIGS. 4A-4F: DFPQ inhibits internalization of the β2AR and protects from agonist induced desensitization in cell and tissue models. FIG. 4A: Effect of DFPQ on agonist-promoted internalization of the β2AR. […] Cells were fixed and receptor surface expression was measured by ELISA. […] Cells were lysed and cAMP production was measured by ELISA. […] FIG. 4C: […] Airway contractility was measured by luminal area of bronchioles by microscopy at various times. FIG. 4D: […] HASM cells were scratched and incubated overnight in PDGF containing serum free media. Cells were imaged to evaluate migration into the scratched area. […] Cells were read every three minutes for 18 minutes on a PolarStar Optima plate reader (BMG) to establish peak signal. […] Luminescence was determined at room temperature (23-25° C.) on a PolarStar Optima plate reader (BMG). […] Relative assay bias was calculated from the ratio of normalized cAMP and arrestin recruitment responses. […] BRET was measured using a Tecan Infinite F500 microplate reader. […] Bound [35 S]GTPγS was collected by rapid filtration on GF/B filters, washed 4 times with 4 ml of cold GTPγS wash buffer and analyzed by liquid scintillation counting. […] Immunoprecipitated proteins were separated by SDS-PAGE and analyzed by western blot using a β2AR C-terminal tail or phospho-specific antibody. […] Band intensity was measured by densitometry using ImageJ. […]

FLAG-β2AR, sequence (P07550 whole entry): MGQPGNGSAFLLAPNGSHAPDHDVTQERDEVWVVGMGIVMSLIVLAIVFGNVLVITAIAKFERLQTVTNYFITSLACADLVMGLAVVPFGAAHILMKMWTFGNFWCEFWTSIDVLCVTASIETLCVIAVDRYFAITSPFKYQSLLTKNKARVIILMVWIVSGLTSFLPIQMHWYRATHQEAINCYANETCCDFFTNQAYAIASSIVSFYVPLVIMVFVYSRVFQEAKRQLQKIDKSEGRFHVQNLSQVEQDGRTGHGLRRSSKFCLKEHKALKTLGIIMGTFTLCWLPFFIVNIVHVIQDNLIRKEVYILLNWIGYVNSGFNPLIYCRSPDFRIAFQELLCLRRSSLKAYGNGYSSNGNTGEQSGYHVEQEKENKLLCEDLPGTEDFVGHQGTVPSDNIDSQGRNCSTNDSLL

SMILES: Fc1ccc(Nc2nc(NC3CCCCC3)c3ccccc3n2)cc1F [DFPQ, N^4-cyclohexyl-N^2-(3,4-difluorophenyl)quinazoline-2,4-diamine]
- agonist-induced internalization of the receptor: fully inhibited
